Test results: US20080221092A1, “Heterobicyclic metalloprotease inhibitors” (priority 2006, published 2008)

Experiments:
[1] = target: T1, catalytic domain of MMP-3 enzyme (Homo sapiens, UniProt P08254); assay: Assay for determining MMP-3 inhibition (fluorescent substrate NFF-3); format: biochemical; conditions: read-out: Summary of MMP-3 Activity for Compounds (IC50 MMP-3, group)
T1 construct: stock solution of the catalytic domain of MMP-3 enzyme (Biomol, Cat. No. SE-109); purchased Biomol SE-109
T1 sequence (P08254 100-272 limits assumed): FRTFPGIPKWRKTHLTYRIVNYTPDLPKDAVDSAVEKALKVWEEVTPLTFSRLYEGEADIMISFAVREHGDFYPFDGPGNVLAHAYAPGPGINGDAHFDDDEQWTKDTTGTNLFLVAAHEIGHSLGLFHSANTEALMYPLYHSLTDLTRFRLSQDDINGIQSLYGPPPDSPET
Protocol: Assay for Determining MMP-3 Inhibition
The typical assay for MMP-3 activity is carried out in assay buffer comprised of 50 mM MES, pH 6.0, 10 mM CaCl2 and 0.05% Brij-35. Different concentrations of tested compounds are prepared in assay buffer in 50 μl aliquots. 10 μl of a 100 nM stock solution of the catalytic domain of MMP-3 enzyme (Biomol, Cat. No. SE-109) is added to the compound solution. The mixture of enzyme and compound in assay buffer is thoroughly mixed and incubated for 10 min at room temperature. Upon the completion of incubation, the assay is started by addition of 40 μl of a 12.5 μM stock solution of NFF-3 fluorescent substrate (Calbiochem, Cat. No. 480455). The time-dependent increase in fluorescence is measured at the 330 nm excitation and 390 nm emission by an automatic plate multireader. The IC50 values are calculated from the initial reaction rates.

[2] = target: T2, catalytic domain of MMP-13 enzyme (Homo sapiens, UniProt P45452); assay: Assay for determining MMP-13 inhibition (fluorescent substrate); format: biochemical; conditions: read-out: Summary of MMP-13 Activity for Compounds (IC50 MMP-13, group)
T2 construct: stock solution of catalytic domain of MMP-13 enzyme (produced by Alantos or commercially available from Invitek); purchased Invitek (Berlin) 30100812
Protocol: Assay for Determining MMP-13 Inhibition
The typical assay for MMP-13 activity is carried out in assay buffer comprised of 50 mM Tris, pH 7.5, 150 mM NaCl, 5 mM CaCl2 and 0.05% Brij-35. Different concentrations of tested compounds are prepared in assay buffer in 50 μl aliquots. 10 μl of a 50 nM stock solution of catalytic domain of MMP-13 enzyme (produced by Alantos or commercially available from Invitek (Berlin), Cat. No. 30100812) is added to the compound solution. The mixture of enzyme and compound in assay buffer is thoroughly mixed and incubated for 10 min at room temperature. Upon the completion of incubation, the assay is started by addition of 40 μl of a 12.5 μM stock solution of MMP-13 fluorescent substrate (Calbiochem, Cat. No. 444235). The time-dependent increase in fluorescence is measured at the 320 nm excitation and 390 nm emission by automatic plate multireader. The IC50 values are calculated from the initial reaction rates.

SMILES | IC50 [1] | IC50 [2]
O=C1COc2ccc(CNC(=O)c3ncnc4c(NS(=O)(=O)c5cccs5)c[nH]c34)cc2N1 [Example 26] | 101 to 20000 nM | 101 to 20000 nM
O=C(NCc1ccc(F)c(Cl)c1)c1ncnc2c([N+](=O)[O-])c[nH]c12 [Example 7] | 101 to 20000 nM | 101 to 20000 nM
O=C(NCc1ccc(F)cc1)c1ncnc2c(Br)c[nH]c12 [Example 5] | 101 to 20000 nM | 101 to 20000 nM
O=C(NCc1ccc(F)c(Cl)c1)c1ncnc2c(Br)c[nH]c12 [Example 4] | 101 to 20000 nM | 101 to 20000 nM
O=C(O)c1c[nH]c2c(C(=O)NCc3ccc(F)c(Cl)c3)ncnc12 [Example 20] | 101 to 20000 nM | 101 to 20000 nM
CC(C)(C)OC(=O)Nc1c[nH]c2c(C(=O)NCc3ccc4c(c3)NC(=O)CO4)ncnc12 [Example 1] | 101 to 20000 nM | 
O=C1COc2ccc(CNC(=O)c3ncnc4cc[nH]c34)cc2N1 [Example 13] | 101 to 20000 nM | 101 to 20000 nM
Nc1n[nH]c2c(C(=O)NCc3ccc(F)c(Cl)c3)ncnc12 [Example 22] | 101 to 20000 nM | 101 to 20000 nM
O=C(O)c1c[nH]c2c(C(=O)NCc3ccc(F)cc3)ncnc12 [Example 19] | 101 to 20000 nM | 101 to 20000 nM
O=C1COc2ccc(CNC(=O)c3ncnc4c(NS(=O)(=O)c5ccc(Cl)cc5)c[nH]c34)cc2N1 [Example 28] | 101 to 20000 nM | 101 to 20000 nM
O=C1COc2ccc(CNC(=O)c3ncnc4c(NS(=O)(=O)Cc5ccccc5)c[nH]c34)cc2N1 [Example 27] | 101 to 20000 nM | 101 to 20000 nM

Second part, the compound after the results:

IC50 [1] | IC50 [2] | SMILES
3 to 100 nM | 101 to 20000 nM | CCOC(=O)c1c[nH]c2c(C(=O)NCc3ccc4c(c3)NC(=O)CO4)ncnc12 [Example 8]
101 to 20000 nM | 3 to 100 nM | Nc1n[nH]c2c(C(=O)NCc3ccc4c(c3)NC(=O)CO4)ncnc12 [Example 23]
101 to 20000 nM | 101 to 20000 nM | O=C1COc2ccc(CNC(=O)c3ncnc4c([N+](=O)[O-])c[nH]c34)cc2N1 [Example 6]
101 to 20000 nM | 101 to 20000 nM | Nc1c[nH]c2c(C(=O)NCc3ccc4c(c3)NC(=O)CO4)ncnc12 [Example 15]
101 to 20000 nM | 101 to 20000 nM | O=C1COc2ccc(CNC(=O)c3ncnc4nc[nH]c34)cc2N1 [Example 9]
3 to 100 nM | 101 to 20000 nM | O=C1COc2ccc(CNC(=O)c3ncnc4c(C(=O)O)c[nH]c34)cc2N1 [Example 21]
3 to 100 nM | 101 to 20000 nM | CS(=O)(=O)Nc1c[nH]c2c(C(=O)NCc3ccc4c(c3)NC(=O)CO4)ncnc12 [Example 25]
